The test relates to P388 leukemia ip, CD2F1 mice, survival T/C. Put plainly: NCI In Vivo Anticancer Drug Screen. Data for tumor model P388 Leukemia (intraperitoneal) in CD2F1 (CDF1) mice. The conditions noted are these: endpoint: median survival time, higher = longer survival. Put shortly:
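Mice carrying the transplanted tumor received test compound or vehicle. Survival was recorded in each group, and the value is the treated-group measurement divided by that of the vehicle-treated control group.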

The mark [1] stands for this setting: dose: 100.0 mg/kg/injection, schedule: Q04DX002 (ip), vehicle: Klucel (hydroxypropylcellulose) (HPC).
[2] abbreviates: dose: 200.0 mg/kg/injection, schedule: Q04DX002 (ip), vehicle: Klucel (hydroxypropylcellulose) (HPC).
Setting [3] is: dose: 50.0 mg/kg/injection, schedule: Q01DX009 (ip), vehicle: saline.
Where [4] appears, read: dose: 100.0 mg/kg/injection, schedule: Q01DX009 (ip), vehicle: saline.
Where [5] appears, read: dose: 200.0 mg/kg/injection, schedule: Q01DX009 (ip), vehicle: saline.
Setting [6] is: dose: 50.0 mg/kg/injection, schedule: Q01DX009 (ip), vehicle: saline with Tween-80.
The mark [7] stands for this setting: dose: 100.0 mg/kg/injection, schedule: Q01DX009 (ip), vehicle: saline with Tween-80.
[8] abbreviates: dose: 200.0 mg/kg/injection, schedule: Q01DX009 (ip), vehicle: saline with Tween-80.
Where [9] appears, read: dose: 400.0 mg/kg/injection, schedule: Q01DX009 (ip), vehicle: saline with Tween-80.
The mark [10] stands for this setting: dose: 60.0 mg/kg/injection, schedule: Q01DX005 (ip), vehicle: saline with Tween-80.
Setting [11] is: dose: 60.0 mg/kg/injection, schedule: Q01DX005 (ip), vehicle: Klucel (hydroxypropylcellulose) (HPC).
[12] abbreviates: dose: 120.0 mg/kg/injection, schedule: Q01DX005 (ip), vehicle: Klucel (hydroxypropylcellulose) (HPC).
Where [13] appears, read: dose: 240.0 mg/kg/injection, schedule: Q01DX005 (ip), vehicle: Klucel (hydroxypropylcellulose) (HPC).
The mark [14] stands for this setting: dose: 120.0 mg/kg/injection, schedule: Q01DX005 (ip), vehicle: saline with Tween-80.
Where [15] appears, read: dose: 240.0 mg/kg/injection, schedule: Q01DX005 (ip), vehicle: saline with Tween-80.
[16] abbreviates: dose: 50.0 mg/kg/injection, schedule: Q01DX009 (ip), vehicle: Klucel (hydroxypropylcellulose) (HPC).
[17] abbreviates: dose: 100.0 mg/kg/injection, schedule: Q01DX009 (ip), vehicle: Klucel (hydroxypropylcellulose) (HPC).
The mark [18] stands for this setting: dose: 200.0 mg/kg/injection, schedule: Q01DX009 (ip), vehicle: Klucel (hydroxypropylcellulose) (HPC).

Consider 28 compounds from PubChem BioAssay AID330 (DTP/NCI, 2004).

Where “and” joins values, the source holds several entries; their conditions need not be identical. Equal values may be shown once. Toxic doses and inconclusive results are not listed.

`CCCN1C=C(C(=O)OC)C(N)=C(C#N)/C1=C\C=C(/C#N)C(=O)OC`: the T/C by setting is: (dose: 50.0 mg/kg/injection, schedule: Q04DX002 (ip), vehicle: Klucel (hydroxypropylcellulose) (HPC)) 93 % of control; under setting [1], 100 % of control; under setting [2], 90 % of control.
Take `O=C1OC(C(O)CO)/C(=N\O)C1O` (stereo not drawn): the T/C was 104 % of control under setting [3], 104 % of control under setting [4] and 111 % of control under setting [5].
Turning to `CC(=C\c1ccc(Cl)c(Cl)c1)/C(C)=N/NC(N)=Nc1ccc(C)cc1`, the T/C (dose: 25.0 mg/kg/injection, schedule: Q04DX002 (ip), vehicle: saline with Tween-80) was 103 % of control and the T/C (dose: 50.0 mg/kg/injection, schedule: Q04DX002 (ip), vehicle: saline with Tween-80) is 111 % of control.
As to `COc1ccc(CCN2CN=C(Sc3ccc([N+](=O)[O-])cc3Cl)NC2)cc1OC`, the T/C reads like this: under setting [6], 98 % of control; under setting [7], 98 % of control; under setting [8], 93 % of control.
As to `COC(=O)/C=C/C=C(c1ccccc1)c1ccccc1`, the T/C runs as follows: under setting [6], 99 % of control; under setting [7], 104 % of control; under setting [8], 106 % of control; under setting [9], 113 % of control.
Turning to `CC(C=O)[Se]c1ccccc1` (stereo not drawn), the T/C under setting [10] is 100 % of control.
`Cc1cc(=O)oc2c(-c3ccccc3)n[nH]c(=O)c12`: the T/C is 104 % of control under setting [11], 95 % of control under setting [12] and 97 % of control under setting [13].
For the compound `CCc1nc(N)nc(N)c1-c1ccc(NC)c(N)c1`, the T/C is, setting by setting: under setting [1], 96 % of control; under setting [2], 105 % of control.
For the compound `N#C/C(C(N)=O)=C1/C(=O)Nc2ccccc21`, the T/C by setting is: (dose: 50.0 mg/kg/injection, schedule: Q01DX005 (ip), vehicle: Klucel (hydroxypropylcellulose) (HPC)) 103 % of control; (dose: 100.0 mg/kg/injection, schedule: Q01DX005 (ip), vehicle: Klucel (hydroxypropylcellulose) (HPC)) 98 % of control; (dose: 200.0 mg/kg/injection, schedule: Q01DX005 (ip), vehicle: Klucel (hydroxypropylcellulose) (HPC)) 94 % of control.
Turning to `COc1ccc(N(CN2C(=O)CCC2=O)CS(=O)(=O)c2ccc(Cl)cc2)cc1`, the T/C is 97 % of control under setting [11], 90 % of control under setting [12] and 100 % of control under setting [13].
Consider `Cc1cccc(Cl)c1NC(=O)Nc1ccc(Cl)cc1C(=O)c1ccccc1`, for which the T/C by setting is: under setting [10], 99 % of control; under setting [14], 94 % of control; under setting [15], 101 % of control.
For `COC(=O)c1cc(-c2ccc(O)c(OC)c2)n2c(NC(=O)Nc3ccc(Cl)cc3)nnc2n1` the same measures were 91 % of control, 91 % of control and 91 % of control.
As to `CC(=O)[C@H]1CC[C@H]2[C@@H]3C[C@H](C)C4=CC(=O)CC[C@]4(C)[C@H]3C(=O)C[C@]12C`, the T/C by setting is: under setting [7], 100 % of control; under setting [8], 109 % of control; under setting [9], 104 % of control.
For `NC(=S)N/N=C/c1ccc(-c2ccccc2)cc1`, the T/C runs as follows: (dose: 12.5 mg/kg/injection, schedule: Q04DX003 (ip), vehicle: saline with Tween-80) 110 % of control; (dose: 25.0 mg/kg/injection, schedule: Q04DX003 (ip), vehicle: saline with Tween-80) 120 % of control; (dose: 50.0 mg/kg/injection, schedule: Q04DX003 (ip), vehicle: saline with Tween-80) 100 % of control.
With `CC(C)(C)[Si](OC(=O)CCCc1ccc(N(CCCl)CCCl)cc1)(c1ccccc1)c1ccccc1`, the T/C (dose: 25.0 mg/kg/injection, schedule: Q01DX005 (ip), vehicle: saline with Tween-80) is 123 % of control; the T/C (dose: 50.0 mg/kg/injection, schedule: Q01DX005 (ip), vehicle: saline with Tween-80) was 155 % of control and 175 % of control; the T/C (dose: 100.0 mg/kg/injection, schedule: Q01DX005 (ip), vehicle: saline with Tween-80) was 255 % of control.
For the compound `COc1cc2c(cc1OC)C1C(C(=O)O)c3ccc(OC)c(OC)c3C(=O)N1CC2` (stereo not drawn), the T/C reads like this: (dose: 50.0 mg/kg/injection, schedule: Q04DX003 (ip), vehicle: distilled water + Tween-80) 100 % of control; (dose: 100.0 mg/kg/injection, schedule: Q04DX003 (ip), vehicle: distilled water + Tween-80) 101 % of control; (dose: 200.0 mg/kg/injection, schedule: Q04DX003 (ip), vehicle: distilled water + Tween-80) 103 % of control; (dose: 400.0 mg/kg/injection, schedule: Q04DX003 (ip), vehicle: distilled water + Tween-80) 89 % of control.
Take `OC1OCC(Cc2ccc3c(c2)OCO3)C1Cc1ccc2c(c1)OCO2` (stereo not drawn): the T/C is, setting by setting: (dose: 100.0 mg/kg/injection, schedule: Q04DX003 (ip), vehicle: other) 95 % of control; (dose: 200.0 mg/kg/injection, schedule: Q04DX003 (ip), vehicle: other) 90 % of control; (dose: 400.0 mg/kg/injection, schedule: Q04DX003 (ip), vehicle: other) 90 % of control.
For `N#CC(C#N)=C(O)/C(=C/c1ccc([N+](=O)[O-])cc1)NC(=O)c1ccccc1`, the T/C reads like this: (dose: 60.0 mg/kg/injection, schedule: Q01DX005 (ip), vehicle: saline) 95 % of control; (dose: 120.0 mg/kg/injection, schedule: Q01DX005 (ip), vehicle: saline) 100 % of control; (dose: 240.0 mg/kg/injection, schedule: Q01DX005 (ip), vehicle: saline) 95 % of control.
As to `COc1cc2c(cc1OC)C1c3cc(OC)c(OC)cc3CCN1CC2`, the T/C was 106 % of control (dose: 3.13 mg/kg/injection, schedule: Q01DX009 (ip), vehicle: water); 106 % of control (dose: 6.25 mg/kg/injection, schedule: Q01DX009 (ip), vehicle: water); 100 % of control (dose: 12.5 mg/kg/injection, schedule: Q01DX009 (ip), vehicle: water); 107 % of control (dose: 25.0 mg/kg/injection, schedule: Q01DX009 (ip), vehicle: water).
In the case of `CCOc1ccc(/C=N/NC(=O)C(O)c2ccccc2)cc1OC` (stereo not drawn), the T/C under setting [10] was 96 % of control, the T/C under setting [14] is 100 % of control and the T/C under setting [15] is 94 % of control.
Consider `CSc1cccc(NC(=O)OCCOc2ccc(Cl)c(C)c2)c1`, for which the T/C was 92 % of control under setting [16], 97 % of control under setting [17] and 92 % of control under setting [18].
For `CCCCCCC(=O)/C=C/c1ccccc1O`, the T/C runs as follows: under setting [3], 108 % of control; under setting [4], 99 % of control; under setting [5], 112 % of control.
As for `COc1ccc(CCNC2(C#N)CCCCC2)cc1OC`, the T/C under setting [16] is 98 % of control and the T/C under setting [17] was 102 % of control.
On to `COc1ccc(OC)c(/C=C/c2ccc([N+](=O)[O-])cc2)c1`, for which the T/C is 100 % of control under setting [16], 100 % of control under setting [17] and 86 % of control under setting [18].
On to `CCCCNC(=O)C(C)O` (stereo not drawn), for which the T/C (dose: 50.0 mg/kg/injection, schedule: Q01DX005 (ip), vehicle: saline) is 101 % of control; the T/C (dose: 100.0 mg/kg/injection, schedule: Q01DX005 (ip), vehicle: saline) was 99 % of control; the T/C (dose: 200.0 mg/kg/injection, schedule: Q01DX005 (ip), vehicle: saline) is 92 % of control.
In the case of `Cc1cc(Cl)ccc1N=Cc1cccs1`, the T/C is 90 % of control under setting [3], 90 % of control under setting [4] and 89 % of control under setting [5].
Take `COc1ccccc1N1CCCSC1=Nc1ccccc1`: the T/C by setting is: (dose: 12.5 mg/kg/injection, schedule: Q01DX009 (ip), vehicle: Klucel (hydroxypropylcellulose) (HPC)) 105 % of control; (dose: 25.0 mg/kg/injection, schedule: Q01DX009 (ip), vehicle: Klucel (hydroxypropylcellulose) (HPC)) 98 % of control; under setting [16], 90 % of control; under setting [17], 119 % of control; under setting [18], 90 % of control.
For the compound `CC(=O)Nc1nccs1.CC(=O)Nc1nccs1.[Cl][Pt][Cl]`, the T/C is 93 % of control (dose: 100.0 mg/kg/injection, schedule: Q04DX002 (ip), vehicle: saline with Tween-80) and 91 % of control (dose: 200.0 mg/kg/injection, schedule: Q04DX002 (ip), vehicle: saline with Tween-80).
